This passage reports IC50 results from patent US9540391B2, “Isomannide derivatives as inhibitors of soluble epoxide hydrolase” (SANOFI, priority 2013, dated 2017).

Counter-ions that a name gives are not always drawn.

In general, IC50 refers to the concentration that gives 50% inhibition.

For the test, the target named is T1, recombinant sEH (Homo sapiens, UniProt P34913).
T1 construct: made in house; host or cells: Sf9 insect cells
T1 sequence (P34913 1-555): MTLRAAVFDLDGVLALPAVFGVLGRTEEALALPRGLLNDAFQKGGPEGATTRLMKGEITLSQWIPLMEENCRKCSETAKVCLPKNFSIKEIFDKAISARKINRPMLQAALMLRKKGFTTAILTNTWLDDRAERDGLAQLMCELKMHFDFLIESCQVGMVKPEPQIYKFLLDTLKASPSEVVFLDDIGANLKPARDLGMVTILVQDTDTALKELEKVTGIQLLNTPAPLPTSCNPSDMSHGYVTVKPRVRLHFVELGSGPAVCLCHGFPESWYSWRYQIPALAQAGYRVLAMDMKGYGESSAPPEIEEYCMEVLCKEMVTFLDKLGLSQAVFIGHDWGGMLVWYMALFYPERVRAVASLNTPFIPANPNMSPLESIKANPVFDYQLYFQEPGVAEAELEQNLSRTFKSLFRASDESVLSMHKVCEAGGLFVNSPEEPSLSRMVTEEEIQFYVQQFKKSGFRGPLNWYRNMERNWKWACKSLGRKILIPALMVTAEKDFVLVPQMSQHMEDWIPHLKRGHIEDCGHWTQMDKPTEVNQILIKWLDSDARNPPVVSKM
Description: biochemical screening assay for inhibition of soluble epoxide hydrolase (fluorometric, Phome substrate). The method, then:
The ability of the compounds of the formula I to inhibit soluble epoxide hydrolase can be determined as follows:
Compounds were tested in a biochemical screening assay using recombinant sEH purified from Sf9 insect cells and an artificial substrate, (3-phenyl-oxiranyl)-acetic acid cyano-(6-methoxy-naphtalen-2-yl)-methyl ester, Phome. The biochemical assay was performed in analogy to a fluorometric method described in the literature (P. D. Jones et al., Anal. Biochem. 2005, 343, 66-75). The assay principle bases on the sEH-catalyzed hydrolysis of an artificial α-cyano-ester substrate. 0-deacetylation liberates a cyanohydrin intermediate that rapidly decomposes to the highly fluorescent 6-methoxy-2-naphtaldehyde. To discriminate sample autofluorescence, the assay was carried out as a kinetic measurement with two time points. The first measurement is performed immediately before addition of the substrate and the second measurement is done after completion of the assay. The assay format is either in 96- or in 384-well format. Details of the assay using a 96-well plate format are described below. 40 μL recombinant sEH enzyme and 5 μL test compound are pre-incubated for 15 minutes at 30° C. Following pre-incubation, the reaction is started by addition of 5 μL Phome. The assay mixture containing 2 nM final sEH concentration, test compound ranging in a concentration from 0.0001-10 μM and 5 μM Phome is incubated for 60 minutes at 30° C.
Fluorescence can be measured with any suitable detector for instance a TECAN Safire or Tecan Ultra at […]. % inhibition of recombinant sEH activity is used for calculation of corresponding IC50 values as illustrated and described in the examples.
The NCBI gene bank reference sequence with the accession number NM_001979 for EPHX2/sEH was applied for recombinant protein production:
The following commercially available materials have been used: • Incubation reagent: 25 mM Hepes (Sigma-Aldrich, Cat. No H-3375), 0.01% bovine albumin (Sigma-Aldrich Cat. No PA9205) • Substrate: 3-Phenyl-oxiranyl)-acetic acid cyano-(6-methoxy-naphtalen-2-yl)-methyl ester, Phome (Biozol Cat. No 10003134) • Microtiter plates: 96-well plates (Greiner Cat. No 655180; Costar Cat. No 3915)
`N#CC1COC2C(NC(=O)Nc3ccc(Cl)c(Cl)c3)COC12` (centres unmarked) [Example 384]: the IC50 was 61 nM.
To `O=C(Nc1ccc2c(c1)CCC2)N[C@H]1CO[C@H]2[C@@H]1OC[C@@H]2C#Cc1ccsc1` [Example 310, 1-Indan-5-yl-3-((3S,3aR,6S,6aR)-6-thiophen-3-ylethynyl-hexahydro-furo[3,2-b]furan-3-yl)-urea] belongs 73 nM; to `O=C(N[C@H]1CO[C@H]2[C@@H]1OC[C@@H]2Oc1ccc(F)cc1)N1CCC(F)(F)CC1` [Example 94, 4,4-difluoro-piperidine-1-carboxylic acid [(3S,3aR,6S,6aS)-6-(4-fluoro-phenoxy)-hexahydro-furo[3,2-b]furan-3-yl]-amide], 2480 nM; to `Cc1ncccc1O[C@H]1CO[C@H]2[C@@H]1OC[C@@H]2NC(=O)NC1CCC(C)CC1` (stereo partly drawn) [Example 257, 1-(4-Methyl-cyclohexyl)-3-[(3S,3aR,6S,6aS)-6-(2-methyl-pyridin-3-yloxy)-hexahydro-furo[3,2-b]furan-3-yl]-urea], 3 nM.
In the case of `Cc1ncccc1O[C@H]1CO[C@H]2[C@@H]1OC[C@@H]2NC(=O)NCC1(c2ccccc2)CCCC1` [Example 184, 1-[(3S,3aR,6S,6aS)-6-(2-Methyl-pyridin-3-yloxy)-hexahydro-furo[3,2-b]furan-3-yl]-3-(1-phenyl-cyclopentylmethyl)-urea] it was 6 nM.
In the case of `O=C(NC1CCCCC1)N[C@H]1CO[C@H]2[C@@H]1OC[C@@H]2OC(=O)N1CCOCC1` [Example 4, morpholine-4-carboxylic acid (3S,3aS,6S,6aR)-6-(3-cyclohexyl-ureido)-hexahydro-furo[3,2-b]furan-3-yl ester] it was 16 nM; in that of `Cc1ncccc1O[C@H]1CO[C@H]2[C@@H]1OC[C@@H]2NC(=O)NC1CCCCC1C(C)(C)C` (stereo partly drawn) [Example 271, 1-(2-tert-Butyl-cyclohexyl)-3-[(3S,3aR,6S,6aS)-6-(2-methyl-pyridin-3-yloxy)-hexahydro-furo[3,2-b]furan-3-yl]-urea], 99 nM.
Turning to `N#C[C@H]1CO[C@H]2[C@@H]1OC[C@@H]2NC(=O)Nc1ccc(OC(F)(F)F)cc1` [Example 378, 1-((3S,3aR,6S,6aR)-6-cyano-hexahydro-furo[3,2-b]furan-3-yl)-3-(4-trifluoromethoxy-phenyl)-urea], the IC50 came out at 24 nM.
In the case of `Cc1ncccc1O[C@H]1CO[C@H]2[C@@H]1OC[C@@H]2NC(=O)NC1COC(C)(C)OC1` [Example 80, 1-(2,2-dimethyl-[1,3]dioxan-5-yl)-3-[(3S,3aR,6S,6aS)-6-(2-methyl-pyridin-3-yloxy)-hexahydro-furo[3,2-b]furan-3-yl]-urea] it was 1160 nM.
In the case of `O=C(Nc1ccc2c(c1)OCO2)N[C@H]1CO[C@H]2[C@@H]1OC[C@@H]2C#Cc1ccccc1` [Example 293, 1-Benzo[1,3]dioxol-5-yl-3-((3S,3aR,6S,6aR)-6-phenylethynyl-hexahydro-furo[3,2-b]furan-3-yl)-urea] it was 71 nM.
To `COC(=O)c1cncc(O[C@H]2CO[C@H]3[C@@H]2OC[C@@H]3NC(=O)NC2CCCCC2)c1` [Example 111, 5-[(3S,3aS,6S,6aR)-6-(3-Cyclohexyl-ureido)-hexahydro-furo[3,2-b]furan-3-yloxy]-nicotinic acid methyl ester] belongs 1 nM; to `O=C(NC1CCCCC1)N[C@H]1CO[C@H]2[C@@H]1OC[C@@H]2Oc1ccccc1C(=O)N1CCCC1` [Example 110, 1-Cyclohexyl-3-{(3S,3aR,6S,6aS)-6-[2-(pyrrolidine-1-carbonyl)-phenoxy]-hexahydro-furo[3,2-b]furan-3-yl}-urea], 140 nM.
For `Cc1ncccc1O[C@H]1CO[C@H]2[C@@H]1OC[C@@H]2NC(=O)NCC1(C)CCCO1` (stereo partly drawn) [Example 209, 1-[(3S,3aR,6S,6aS)-6-(2-Methyl-pyridin-3-yloxy)-hexahydro-furo[3,2-b]furan-3-yl]-3-(2-methyl-tetrahydro-furan-2-ylmethyl)-urea], the concentration for half-maximal inhibition (IC50) is 819 nM.
In the case of `O=C(NC1CCCCC1)N[C@H]1CO[C@H]2[C@@H]1OC[C@@H]2Sc1ccc(F)cc1` [Example 15, 1-Cyclohexyl-3-[(3S,3aR,6S,6aS)-6-(4-fluoro-phenylsulfanyl)-hexahydro-furo[3,2-b]furan-3-yl]-urea] it was less than 1 nM; in that of `O=C(Nc1cccc(C(F)(F)F)c1)N[C@H]1CO[C@@H]2[C@@H](CCc3ccccc3)CO[C@@H]21` [Example 368, 1-((3S,3aR,6S,6aR)-6-Phenethyl-hexahydro-furo[3,2-b]furan-3-yl)-3-(3-trifluoromethyl-phenyl)-urea], 68 nM; in that of `O=C(NC1CCCCC1)N[C@H]1CO[C@H]2[C@@H]1OC[C@@H]2Oc1ccc(-n2cncn2)cc1` [Example 112, 1-Cyclohexyl-3-[(3S,3aR,6S,6aS)-6-(4-[1,2,4]triazol-1-yl-phenoxy)-hexahydro-furo[3,2-b]furan-3-yl]-urea; trifluoroacetate], 1 nM.
On to `O=C(NC1CCCCC1)N[C@H]1CO[C@@H]2[C@@H](CCc3ccccn3)CO[C@@H]21` [Example 350, 1-Cyclohexyl-3-[(3S,3aR,6S,6aR)-6-(2-pyridin-2-yl-ethyl)-hexahydro-furo[3,2-b]furan-3-yl]-urea; trifluoroacetate], for which the half-maximal inhibitory concentration (IC50) stood at 22 nM.
As for `O=C(NC1CCCc2ccccc21)N[C@H]1CO[C@H]2[C@@H]1OC[C@@H]2Oc1ccc(F)cc1` (stereo partly drawn) [Example 158, 1-[(3S,3aR,6S,6aS)-6-(4-Fluoro-phenoxy)-hexahydro-furo[3,2-b]furan-3-yl]-3-(1,2,3,4-tetrahydro-naphthalen-1-yl)-urea], the 50% inhibitory concentration (IC50) was 27 nM.
To `O=C(NCCc1cccs1)N[C@H]1CO[C@H]2[C@@H]1OC[C@@H]2/C=C\c1ccccc1` [Example 330, 1-[(3S,3aR,6S,6aR)-6-((Z)-Styryl)-hexahydro-furo[3,2-b]furan-3-yl]-3-(2-thiophen-2-yl-ethyl)-urea] belongs 69 nM; to `CN1CCN(C(=O)c2ccc(O[C@H]3CO[C@H]4[C@@H]3OC[C@@H]4NC(=O)NC3CCCCC3)cc2)CC1` [Example 119, 1-Cyclohexyl-3-{(3S,3aR,6S,6aS)-6-[4-(4-methyl-piperazine-1-carbonyl)-phenoxy]-hexahydro-furo[3,2-b]furan-3-yl}-urea; trifluoroacetate], 21 nM; to `O=C(N[C@H]1CO[C@H]2[C@@H]1OC[C@@H]2Oc1ccc(F)cc1)N[C@@H]1CCC[C@H]1OCc1ccccc1` [Example 152, 1-((1R,2R)-2-Benzyloxy-cyclopentyl)-3-[(3S,3aR,6S,6aS)-6-(4-fluoro-phenoxy)-hexahydro-furo[3,2-b]furan-3-yl]-urea], 2 nM.
In the case of `O=C(NC1CCCCC1)N[C@H]1CO[C@@H]2[C@@H](CCc3ccc4c(c3)OCO4)CO[C@@H]21` [Example 347, 1-[(3S,3aR,6S,6aR)-6-(2-benzo[1,3]dioxol-5-yl-ethyl)-hexahydro-furo[3,2-b]furan-3-yl]-3-cyclohexyl-urea] it was 128 nM; in that of `O=C(Nc1ccc(OC(F)(F)F)cc1)N[C@H]1CO[C@@H]2[C@@H](CCc3ccccc3)CO[C@@H]21` [Example 372, 1-((3S,3aR,6S,6aR)-6-Phenethyl-hexahydro-furo[3,2-b]furan-3-yl)-3-(4-trifluoromethoxy-phenyl)-urea], 11 nM.
